Molecules are shown by their SMILES.

A short description of series [1]: detection of SH045 metabolites in MLM, HLM and mouse urine by LC-MS/MS. In kind it is in vitro ADME, mouse and human. The settings on record: metabolite of SH045 detected in MLM, HLM (NADPH, UDPGA) and/or mouse urine after 20 mg/kg BW i.v. On the procedure: To explore metabolites of SH045 formed by microsomes, DPBS, alamethicin (25 µg/mL) and MLM or HLM (1.0 mg/mL) were pre-incubated, further incubated with SH045 MgCl2, NADPH and UDPGA, terminated, and processed for LC-MS/MS analysis as described. Positive controls with testosterone and 4-nitrophenol and negative controls were analyzed too (Supplementary Materials SM7).
Larixyl-N-methylcarbamate ((1S,4S,4aR,8aS)-4-((S)-3-hydroxy-3-methylpent-4-en-1-yl)-4a,8,8-trimethyl-3-methylenedeca-hydro-naphthalen-1-yl methylcarbamate, SH045, TRPC6 inhibitor) was synthesized as described by Häfner et al. [1]. (+)-Larixol (internal standard, IS) was isolated from Larix decidua turpentine [2]. Kolliphor® EL was obtained from Caelo (Hilden, Germany). […]
SM2 Quantification of SH045 by HPLC and tandem mass spectrometric methods (LC-MS/MS) In brief, chromatographic separation was achieved using a Zorbax Eclipse XDB-C8 column (100 × 3.0 mm, 3.5 μm 80 Å, Agilent Technologies) with linear gradient elution using water and ACN, each with 0.1 % formic acid as additive, during a total run time of 20 min. For quantification (+)-larixol was used as IS. […] Freshly prepared calibration samples for SH045 in plasma and tissue comprised eight concentration levels analyzed in duplicates (2, 5, 10, 100, 200, 800, 1200 and 1600 ng/mL). […]

For series [2], the system named is TRPC6. To be noted: Ca^2+ influx assays; cited from earlier work.
Series [3] concerns FSGS-related TRPC6 channel mutants, including M132T and R175Q. Details: method as in PMID 28800680. To be noted: including M132T and R175Q variants; cited from earlier work.

Take `CC[C@@](C)(O)CC[C@H]1C(C)C[C@H](OC(=O)NC)[C@H]2C(C)(C)CCC[C@]12C` (some centres unmarked) [M2a]: the Occurrence entry in series [1] is listed as “MLM, HLM”.

As to `C=C[C@](C)(CC[C@H]1C(=C)C[C@H](OC(=O)NC)[C@H]2C(C)(C)CCC[C@]12C)O[C@@H]1O[C@H](C(=O)O)[C@@H](O)[C@H](O)[C@H]1O` [M8a], in series [1], the Occurrence entry was “MLM, HLM”.

For orientation: IC50 means the concentration needed to halve the response being measured. On to `C=CC(C)(O)CCC1C(=C)CC(OC(C)=O)C2C(C)(C)CCCC12C` (centres unmarked) [larixyl monoacetate], for which, in series [2], the IC50 was around 500 nM.

On to `C=CC(C)(O)CCC1C(=C)CC(OC(N)=O)C2C(C)(C)CCCC12C` (centres unmarked) [larixyl-6-carbamate], for which, in series [2], the IC50 was around 500 nM. The “inhibition of FSGS-related TRPC6 channel mutants” value in series [3] is on record as “strong inhibitor”.
